{
  "source": "PubChem BioAssay AID2060898",
  "about": "(Molecular Pharmacology Branch, DTP, NCI, 2025);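 note: spheroids exposed to agents for seven days before viability readout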;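 for viability, T/C: 100% = DMSO vehicle control viability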",
  "system": "616215-338-R-J1-PDC complex spheroid viability",
  "assay": "Anticancer human tumor 616215-338-R-J1-PDC patient-derived colon adenocarcinoma cell line growth inhibition [RAS]",
  "details": "for IC50: curve of first compound; for viability, T/C: stronger effect = lower value",
  "in_short": "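Tumour cells grown as complex spheroids with HUVEC endothelial cells and mesenchymal stem cells, treated with RAS pathway inhibitor combinations. Each agent spans half-log steps from near clinical Cmax, or 10 microM where Cmax is unknown.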",
  "key": {"[1]": {"details": "second compound 0.000949 µM, first compound 0.0316 µM"}, "[2]": {"details": "second compound 0.000949 µM, first compound 0.1 µM"}, "[3]": {"details": "second compound 0.000949 µM, first compound 0.316 µM"}, "[4]": {"details": "second compound 0.000949 µM, first compound 1 µM"}, "[5]": {"details": "second compound 0.003 µM, first compound 0.0316 µM"}, "[6]": {"details": "second compound 0.003 µM, first compound 0.1 µM"}, "[7]": {"details": "second compound 0.003 µM, first compound 0.316 µM"}, "[8]": {"details": "second compound 0.003 µM, first compound 1 µM"}, "[9]": {"details": "second compound 0.00949 µM, first compound 0.0316 µM"}, "[10]": {"details": "second compound 0.00949 µM, first compound 0.1 µM"}, "[11]": {"details": "second compound 0.00949 µM, first compound 0.316 µM"}, "[12]": {"details": "second compound 0.00949 µM, first compound 1 µM"}, "[13]": {"details": "second compound 0.03 µM, first compound 0.0316 µM"}, "[14]": {"details": "second compound 0.03 µM, first compound 0.1 µM"}, "[15]": {"details": "second compound 0.03 µM, first compound 0.316 µM"}, "[16]": {"details": "second compound 0.03 µM, first compound 1 µM"}, "[17]": {"details": "second compound 0.0949 µM, first compound 0.0316 µM"}, "[18]": {"details": "second compound 0.0949 µM, first compound 0.1 µM"}, "[19]": {"details": "second compound 0.0949 µM, first compound 0.316 µM"}, "[20]": {"details": "second compound 0.0949 µM, first compound 1 µM"}, "[21]": {"details": "second compound 0.3 µM, first compound 0.0316 µM"}, "[22]": {"details": "second compound 0.3 µM, first compound 0.1 µM"}, "[23]": {"details": "second compound 0.3 µM, first compound 0.316 µM"}, "[24]": {"details": "second compound 0.3 µM, first compound 1 µM"}},
  "data": [
    {"smiles": "CC(Nc1ccc2c(c1)OCCn1cc(N3C(=O)OCC3C(F)F)nc1-2)C(N)=O", "note": "(centres undefined) + CCn1c(-c2cc(N3CCN(C)CC3)cnc2C(C)OC)c2c3cc(ccc31)-c1csc(n1)CC(NC(=O)C1CC1C)C(=O)N1CCCC(N1)C(=O)OCC(C)(C)C2", "values": [
      {"measurement": "IC50", "setting": "second compound 0.000949 µM", "value": "> 10000", "unit": "nM"},
      {"measurement": "IC50", "setting": "second compound 0.003 µM", "value": "> 10000", "unit": "nM"},
      {"measurement": "IC50", "setting": "second compound 0.00949 µM", "value": 281, "unit": "nM"},
      {"measurement": "IC50", "setting": "second compound 0.03 µM", "value": "< 31.6", "unit": "nM"},
      {"measurement": "IC50", "setting": "second compound 0.0949 µM", "value": "< 31.6", "unit": "nM"},
      {"measurement": "IC50", "setting": "second compound 0.3 µM", "value": "< 31.6", "unit": "nM"},
      {"measurement": "viability, T/C", "setting": "[1]", "value": 114, "unit": "%"},
      {"measurement": "viability, T/C", "setting": "[2]", "value": 106, "unit": "%"},
      {"measurement": "viability, T/C", "setting": "[3]", "value": 103, "unit": "%"},
      {"measurement": "viability, T/C", "setting": "[4]", "value": 117, "unit": "%"},
      {"measurement": "viability, T/C", "setting": "second compound 0.000949 µM, first compound 3.16 µM", "value": 94.6, "unit": "%"},
      {"measurement": "viability, T/C", "setting": "second compound 0.000949 µM, first compound 10 µM", "value": 74.5, "unit": "%"},
      {"measurement": "viability, T/C", "setting": "[5]", "value": 109, "unit": "%"},
      {"measurement": "viability, T/C", "setting": "[6]", "value": 99.5, "unit": "%"},
      {"measurement": "viability, T/C", "setting": "[7]", "value": 85.5, "unit": "%"},
      {"measurement": "viability, T/C", "setting": "[8]", "value": 83.2, "unit": "%"},
      {"measurement": "viability, T/C", "setting": "second compound 0.003 µM, first compound 3.16 µM", "value": 91.4, "unit": "%"},
      {"measurement": "viability, T/C", "setting": "second compound 0.003 µM, first compound 10 µM", "value": 69, "unit": "%"},
      {"measurement": "viability, T/C", "setting": "[9]", "value": 90.9, "unit": "%"},
      {"measurement": "viability, T/C", "setting": "[10]", "value": 63.5, "unit": "%"},
      {"measurement": "viability, T/C", "setting": "[11]", "value": 48.4, "unit": "%"},
      {"measurement": "viability, T/C", "setting": "[12]", "value": 48.9, "unit": "%"},
      {"measurement": "viability, T/C", "setting": "second compound 0.00949 µM, first compound 3.16 µM", "value": 47.7, "unit": "%"},
      {"measurement": "viability, T/C", "setting": "second compound 0.00949 µM, first compound 10 µM", "value": 48, "unit": "%"},
      {"measurement": "viability, T/C", "setting": "[13]", "value": 37.4, "unit": "%"},
      {"measurement": "viability, T/C", "setting": "[14]", "value": 41.2, "unit": "%"},
      {"measurement": "viability, T/C", "setting": "[15]", "value": 28.6, "unit": "%"},
      {"measurement": "viability, T/C", "setting": "[16]", "value": 37.1, "unit": "%"},
      {"measurement": "viability, T/C", "setting": "second compound 0.03 µM, first compound 3.16 µM", "value": 38.1, "unit": "%"},
      {"measurement": "viability, T/C", "setting": "second compound 0.03 µM, first compound 10 µM", "value": 28.2, "unit": "%"},
      {"measurement": "viability, T/C", "setting": "[17]", "value": 33.3, "unit": "%"},
      {"measurement": "viability, T/C", "setting": "[18]", "value": 31.9, "unit": "%"},
      {"measurement": "viability, T/C", "setting": "[19]", "value": 28.7, "unit": "%"},
      {"measurement": "viability, T/C", "setting": "[20]", "value": 25.9, "unit": "%"},
      {"measurement": "viability, T/C", "setting": "second compound 0.0949 µM, first compound 3.16 µM", "value": 23.2, "unit": "%"},
      {"measurement": "viability, T/C", "setting": "second compound 0.0949 µM, first compound 10 µM", "value": 25.3, "unit": "%"},
      {"measurement": "viability, T/C", "setting": "[21]", "value": 37.8, "unit": "%"},
      {"measurement": "viability, T/C", "setting": "[22]", "value": 40.5, "unit": "%"},
      {"measurement": "viability, T/C", "setting": "[23]", "value": 27.5, "unit": "%"},
      {"measurement": "viability, T/C", "setting": "[24]", "value": 29.3, "unit": "%"},
      {"measurement": "viability, T/C", "setting": "second compound 0.3 µM, first compound 3.16 µM", "value": 25.3, "unit": "%"},
      {"measurement": "viability, T/C", "setting": "second compound 0.3 µM, first compound 10 µM", "value": 23.5, "unit": "%"}
    ]},
    {"smiles": "O=C(c1ccc(F)c(F)c1Nc1ccc(I)cc1F)N1CC(O)([C@@H]2CCCCN2)C1", "note": "+ CCn1c(-c2cc(N3CCN(C)CC3)cnc2C(C)OC)c2c3cc(ccc31)-c1csc(n1)CC(NC(=O)C1CC1C)C(=O)N1CCCC(N1)C(=O)OCC(C)(C)C2", "values": [
      {"measurement": "IC50", "setting": "second compound 0.000949 µM", "value": 41.4, "unit": "nM"},
      {"measurement": "IC50", "setting": "second compound 0.003 µM", "value": 22.6, "unit": "nM"},
      {"measurement": "IC50", "setting": "second compound 0.00949 µM", "value": 6.67, "unit": "nM"},
      {"measurement": "IC50", "setting": "second compound 0.03 µM", "value": "< 3.16", "unit": "nM"},
      {"measurement": "IC50", "setting": "second compound 0.0949 µM", "value": "< 3.16", "unit": "nM"},
      {"measurement": "IC50", "setting": "second compound 0.3 µM", "value": "< 3.16", "unit": "nM"},
      {"measurement": "viability, T/C", "setting": "second compound 0.000949 µM, first compound 0.00316 µM", "value": 115, "unit": "%"},
      {"measurement": "viability, T/C", "setting": "second compound 0.000949 µM, first compound 0.01 µM", "value": 87.5, "unit": "%"},
      {"measurement": "viability, T/C", "setting": "[1]", "value": 58.6, "unit": "%"},
      {"measurement": "viability, T/C", "setting": "[2]", "value": 27, "unit": "%"},
      {"measurement": "viability, T/C", "setting": "[3]", "value": 12.1, "unit": "%"},
      {"measurement": "viability, T/C", "setting": "[4]", "value": 3.52, "unit": "%"},
      {"measurement": "viability, T/C", "setting": "second compound 0.003 µM, first compound 0.00316 µM", "value": 101, "unit": "%"},
      {"measurement": "viability, T/C", "setting": "second compound 0.003 µM, first compound 0.01 µM", "value": 73.3, "unit": "%"},
      {"measurement": "viability, T/C", "setting": "[5]", "value": 39, "unit": "%"},
      {"measurement": "viability, T/C", "setting": "[6]", "value": 20.6, "unit": "%"},
      {"measurement": "viability, T/C", "setting": "[7]", "value": 5.3, "unit": "%"},
      {"measurement": "viability, T/C", "setting": "[8]", "value": 2.66, "unit": "%"},
      {"measurement": "viability, T/C", "setting": "second compound 0.00949 µM, first compound 0.00316 µM", "value": 66.8, "unit": "%"},
      {"measurement": "viability, T/C", "setting": "second compound 0.00949 µM, first compound 0.01 µM", "value": 39.9, "unit": "%"},
      {"measurement": "viability, T/C", "setting": "[9]", "value": 24.2, "unit": "%"},
      {"measurement": "viability, T/C", "setting": "[10]", "value": 15.7, "unit": "%"},
      {"measurement": "viability, T/C", "setting": "[11]", "value": 2.25, "unit": "%"},
      {"measurement": "viability, T/C", "setting": "[12]", "value": 2.11, "unit": "%"},
      {"measurement": "viability, T/C", "setting": "second compound 0.03 µM, first compound 0.00316 µM", "value": 32.5, "unit": "%"},
      {"measurement": "viability, T/C", "setting": "second compound 0.03 µM, first compound 0.01 µM", "value": 30.3, "unit": "%"},
      {"measurement": "viability, T/C", "setting": "[13]", "value": 21.2, "unit": "%"},
      {"measurement": "viability, T/C", "setting": "[14]", "value": 3.47, "unit": "%"},
      {"measurement": "viability, T/C", "setting": "[15]", "value": 1.98, "unit": "%"},
      {"measurement": "viability, T/C", "setting": "[16]", "value": 1.79, "unit": "%"},
      {"measurement": "viability, T/C", "setting": "second compound 0.0949 µM, first compound 0.00316 µM", "value": 30.1, "unit": "%"},
      {"measurement": "viability, T/C", "setting": "second compound 0.0949 µM, first compound 0.01 µM", "value": 19.2, "unit": "%"},
      {"measurement": "viability, T/C", "setting": "[17]", "value": 4.14, "unit": "%"},
      {"measurement": "viability, T/C", "setting": "[18]", "value": 1.63, "unit": "%"},
      {"measurement": "viability, T/C", "setting": "[19]", "value": 1.65, "unit": "%"},
      {"measurement": "viability, T/C", "setting": "[20]", "value": 1.53, "unit": "%"},
      {"measurement": "viability, T/C", "setting": "second compound 0.3 µM, first compound 0.00316 µM", "value": 25.9, "unit": "%"},
      {"measurement": "viability, T/C", "setting": "second compound 0.3 µM, first compound 0.01 µM", "value": 18.8, "unit": "%"},
      {"measurement": "viability, T/C", "setting": "[21]", "value": 2.37, "unit": "%"},
      {"measurement": "viability, T/C", "setting": "[22]", "value": 1.55, "unit": "%"},
      {"measurement": "viability, T/C", "setting": "[23]", "value": 1.12, "unit": "%"},
      {"measurement": "viability, T/C", "setting": "[24]", "value": 1.16, "unit": "%"}
    ]}
  ]
}
